In US7772241B2, “Variolin derivatives and their use as antitumor agents” (Pharma Mar S.A., priority 2001, dated 2010):
Read-outs that look alike come from different tables or passages of the source.

Tests used:
SK-BR-3 = assay: Inhibition of cells growth by colorimetric (SRB) assay, SK-BR-3; details: for GI50 / CC50: Homo sapiens, SK-BR-3, 48 h
Summary of the method: (§1)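 Human tumour cells seeded at 5×10^3/well in RPMI 1640 10% FBS, attached 18 h, then exposed 48 h to samples at 10 to 10^−8 μg/ml in DMSO/EtOH/PBS (0.5:0.5:99). Growth read by SRB staining after TCA fixation, OD 490 nm, triplicate wells; GI, TGI and LC derived.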

IGROV-1 = assay: Inhibition of cells growth by colorimetric (SRB) assay, IGROV-1; details: for GI50 / CC50: Homo sapiens, IGROV-1, 48 h
Summary of the method: as §1

LNCaP = assay: Inhibition of cells growth by colorimetric (SRB) assay, LNCaP; details: for GI50 / CC50: Homo sapiens, LNCaP, 48 h
Summary of the method: as §1

SK-OV-3 = assay: Inhibition of cells growth by colorimetric (SRB) assay, SK-OV-3
Summary of the method: as §1

HeLa-APL = assay: Inhibition of cells growth by colorimetric (SRB) assay, HeLa-APL
Summary of the method: as §1

A-549 = assay: Inhibition of cells growth by colorimetric (SRB) assay, A-549; details: for GI50 / CC50: Homo sapiens, A549, 48 h
Summary of the method: as §1

PANC-1 = assay: Inhibition of cells growth by colorimetric (SRB) assay, PANC-1; details: for GI50 / CC50: Homo sapiens, PANC-1, 48 h
Summary of the method: as §1

K-562 = assay: Inhibition of cells growth by colorimetric (SRB) assay, K-562; details: for GI50 / CC50: Homo sapiens, K562, 48 h
Summary of the method: as §1

SK-MEL-28 = assay: Inhibition of cells growth by colorimetric (SRB) assay, SK-MEL-28; details: for GI50 / CC50: Homo sapiens, SK-MEL-28, 48 h
Summary of the method: as §1

HMEC1 = assay: Inhibition of cells growth by colorimetric (SRB) assay, HMEC1
[1] = as above; details: human, HMEC1 cells, LC50 H-MEC-1, SRB assay, 48 hours exposure
LoVo = assay: Inhibition of cells growth by colorimetric (SRB) assay, LoVo; details: for GI50 / CC50: Homo sapiens, LoVo, 48 h
Summary of the method: as §1

LoVo-Dox = assay: Inhibition of cells growth by colorimetric (SRB) assay, LoVo-Dox; details: for GI50 / CC50: Homo sapiens, 48 h
Summary of the method: as §1

HeLa = assay: Inhibition of cells growth by colorimetric (SRB) assay, HeLa
Summary of the method: as §1

HT-29 = assay: Inhibition of cells growth by colorimetric (SRB) assay, HT-29; details: for GI50 / CC50: Homo sapiens, HT-29, 48 h
Summary of the method: as §1

## CSc1nccc(-c2c3cccnc3n3c(N(C(C)=O)C(C)=O)nccc23)n1 [Compound 26]
SK-BR-3; read-out: GI50 SK-BR-3, SRB assay, 48 hours exposure
  GI50: 0.278 µM
SK-BR-3; read-out: LC50 SK-BR-3, SRB assay, 48 hours exposure
  CC50: 2.53 µM
SK-BR-3; read-out: SK-BR-3 GI50, SRB assay, 48 hours exposure
  GI50: 4.18 µM
SK-BR-3; read-out: SK-BR-3 LC50, SRB assay, 48 hours exposure
  CC50: 20.7 µM
SK-BR-3; SRB assay, 48 hours exposure
  SK-BR-3 TGI: 9.30E−06
  TGI SK-BR-3: 8.38E−07
IGROV-1; read-out: GI50 IGROV, SRB assay, 48 hours exposure
  GI50: 0.22 µM
IGROV-1; read-out: IGROV GI50, SRB assay, 48 hours exposure
  GI50: 0.721 µM
IGROV-1; read-out: IGROV LC50, SRB assay, 48 hours exposure
  CC50: 9.25 µM
IGROV-1; read-out: LC50 IGROV, SRB assay, 48 hours exposure
  CC50: 9.17 µM
IGROV-1; SRB assay, 48 hours exposure
  IGROV TGI: 1.58E−07
  TGI IGROV: 2.73E−06
LNCaP; read-out: GI50 LN-caP, SRB assay, 48 hours exposure
  GI50: 0.703 µM
LNCaP; read-out: LC50 LN-caP, SRB assay, 48 hours exposure
  CC50: 2.28 µM
LNCaP; read-out: LN-caP GI50, SRB assay, 48 hours exposure
  GI50: 4.51 µM
LNCaP; read-out: LN-caP LC50, SRB assay, 48 hours exposure
  CC50: 17.5 µM
LNCaP; SRB assay, 48 hours exposure
  LN-caP TGI: 8.89E−06
  TGI LN-caP: 1.27E−06
SK-OV-3; Homo sapiens, SK-OV-3, 48 h, read-out: GI50 SKOV-3, SRB assay, 48 hours exposure
  GI50: 0.28 µM
SK-OV-3; Homo sapiens, SK-OV-3, 48 h, read-out: LC50 SKOV-3, SRB assay, 48 hours exposure
  CC50: 9.35 µM
SK-OV-3; SRB assay, 48 hours exposure
  TGI SKOV-3: 1.13E−06
HeLa-APL; Homo sapiens, 48 h, read-out: HELA-APL GI50, SRB assay, 48 hours exposure
  GI50: 0.00177 µM
HeLa-APL; Homo sapiens, 48 h, read-out: HELA-APL LC50, SRB assay, 48 hours exposure
  CC50: 0.227 µM
HeLa-APL; SRB assay, 48 hours exposure
  HELA-APL TGI: 8.64E−09
A-549; read-out: A-549 GI50, SRB assay, 48 hours exposure
  GI50: 6.88 µM
A-549; read-out: A-549 LC50, SRB assay, 48 hours exposure
  CC50: 21.5 µM
A-549; read-out: GI50 A-549, SRB assay, 48 hours exposure
  GI50: 0.706 µM
A-549; read-out: LC50 A-549, SRB assay, 48 hours exposure
  CC50: 16.5 µM
A-549; SRB assay, 48 hours exposure
  A-549 TGI: 1.22E−05
  TGI A-549: 2.93E−06
PANC-1; read-out: GI50 PANC-1, SRB assay, 48 hours exposure
  GI50: 0.933 µM
PANC-1; read-out: LC50 PANC-1, SRB assay, 48 hours exposure
  CC50: 21.3 µM
PANC-1; read-out: PANC-1 GI50, SRB assay, 48 hours exposure
  GI50: 4.38 µM
PANC-1; read-out: PANC-1 LC50, SRB assay, 48 hours exposure
  CC50: 17.6 µM
PANC-1; SRB assay, 48 hours exposure
  PANC-1 TGI: 8.79E−06
  TGI PANC-1: 4.05E−06
K-562; read-out: GI50 K-562, SRB assay, 48 hours exposure
  GI50: 2.8 µM
K-562; read-out: K-562 GI50, SRB assay, 48 hours exposure
  GI50: 6.29 µM
K-562; read-out: K-562 LC50, SRB assay, 48 hours exposure
  CC50: 18.1 µM
K-562; read-out: LC50 K-562, SRB assay, 48 hours exposure
  CC50: 23.4 µM
K-562; SRB assay, 48 hours exposure
  K-562 TGI: 1.07E−05
  TGI K-562: 8.10E−06
SK-MEL-28; read-out: GI50 MEL-28, SRB assay, 48 hours exposure
  GI50: 0.273 µM
SK-MEL-28; read-out: LC50 MEL-28, SRB assay, 48 hours exposure
  CC50: 10.1 µM
SK-MEL-28; read-out: MEL-28 GI50, SRB assay, 48 hours exposure
  GI50: 0.202 µM
SK-MEL-28; read-out: MEL-28 LC50, SRB assay, 48 hours exposure
  CC50: 1.29 µM
SK-MEL-28; SRB assay, 48 hours exposure
  MEL-28 TGI: 5.38E−07
  TGI MEL-28: 2.88E−06
HMEC1; Homo sapiens, HMEC-1, 48 h, read-out: GI50 H-MEC-1, SRB assay, 48 hours exposure
  GI50: 0.446 µM
HMEC1; SRB assay, 48 hours exposure, in M (unit assumed)
  TGI H-MEC-1: 1.22E−06
[1]
  CC50 at 48 h: 8.28 µM
LoVo; read-out: GI50 LOVO, SRB assay, 48 hours exposure
  GI50: 0.415 µM
LoVo; read-out: LC50 LOVO, SRB assay, 48 hours exposure
  CC50: 13.4 µM
LoVo; read-out: LOVO GI50, SRB assay, 48 hours exposure
  GI50: 0.525 µM
LoVo; read-out: LOVO LC50, SRB assay, 48 hours exposure
  CC50: 2.03 µM
LoVo; SRB assay, 48 hours exposure
  LOVO TGI: 1.03E−06
  TGI LOVO: 1.87E−06
LoVo-Dox; read-out: GI50 LOVO-DOX, SRB assay, 48 hours exposure
  GI50: 1.79 µM
LoVo-Dox; read-out: LC50 LOVO-DOX, SRB assay, 48 hours exposure
  CC50: 25.5 µM
LoVo-Dox; read-out: LOVO-DOX GI50, SRB assay, 48 hours exposure
  GI50: 6.09 µM
LoVo-Dox; read-out: LOVO-DOX LC50, SRB assay, 48 hours exposure
  CC50: 19 µM
LoVo-Dox; SRB assay, 48 hours exposure
  LOVO-DOX TGI: 1.08E−06
  TGI LOVO-DOX: 1.10E−05
HeLa; Homo sapiens, HeLa, 48 h, read-out: HELA GI50, SRB assay, 48 hours exposure
  GI50: 0.00197 µM
HeLa; SRB assay, 48 hours exposure
  HELA TGI: 6.91E−09
HT-29; read-out: GI50 HT-29, SRB assay, 48 hours exposure
  GI50: 0.935 µM
HT-29; read-out: HT-29 GI50, SRB assay, 48 hours exposure
  GI50: 1.05 µM
HT-29; read-out: HT-29 LC50, SRB assay, 48 hours exposure
  CC50: 24.6 µM
HT-29; read-out: LC50 HT-29, SRB assay, 48 hours exposure
  CC50: 25.5 µM
HT-29; SRB assay, 48 hours exposure
  HT-29 TGI: 3.47E−06
  TGI HT-29: 3.36E−06
